Laboratory results from the supplement of paper PMC8671470.

Experiments:
Conditions in all cases: 72 h
HL-60 [1] = test: cell viability (% survival relative to DMSO control, bortezomib = 0%); higher = less cytotoxic
Summary of the method: (§1)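 Fifteen myeloid leukaemia cell lines were exposed to compounds at 1, 10, 100, 1000 or 10000 nM in 384-well plates for 72 h at 37 °C and 5% CO2. Viability was read by CellTiter-Glo luminescence and normalised, with vehicle as 100% and a 10 µM positive control as 0%. Values are percent survival averaged over duplicates.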

KG-1 = test: as above
Summary of the method: as §1

KU-812 = test: as above
Summary of the method: as §1

HL-60 [2] = test: area under dose-response curve (viability, 1 nM-10 uM) (fraction (0-1)); higher = more sensitive
Summary of the method: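 HL-60 cells grown in RPMI 1640 with 10% FBS were rescreened against the full library in 384-well plates, in duplicate, at five tenfold concentrations from 1 to 10,000 nM, alongside DMSO or 100 nM of one of three metabolic inhibitors for 72 h at 37 °C, 5% CO2. Reference wells contained DMSO or 10 μM proteasome inhibitor. Viability was read with CellTiter-Glo and normalised to these reference wells, and where reported, area under the curve was taken from four-parameter log-logistic fits in drc and PharmacoGx.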

[3] = tested on: myeloid leukemia patient primary cells Pat.14; test: area under dose-response curve (viability, 1 nM-10 uM) (fraction (0-1)); higher = more sensitive
Procedure: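 AUC (0–1, higher = more sensitive) of the 5-point dose–response (1 nM–10 µM, 72 h, CellTiter-Glo) in primary AML/CML patient mononuclear cells. 0.030103 is the floor for inactive compounds.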

[4] = co-treatment: GSK2194069 100 nM
[5] = co-treatment: pictilisib 100 nM

| Structure (SMILES) | cell viability (HL-60 [1]; 1 nM) | cell viability (HL-60 [1]; 10 nM) | cell viability (HL-60 [1]; 100 nM) | cell viability (HL-60 [1]; 1000 nM) | cell viability (HL-60 [1]; 10000 nM) | cell viability (KG-1; 1 nM) | cell viability (KG-1; 10 nM) | cell viability (KG-1; 100 nM) | cell viability (KG-1; 1000 nM) | cell viability (KG-1; 10000 nM) | cell viability (KU-812; 1 nM) | cell viability (KU-812; 10 nM) | cell viability (KU-812; 100 nM) | cell viability (KU-812; 1000 nM) | cell viability (KU-812; 10000 nM) | area under dose-response curve (HL-60 [2]; co-treatment: AZD3965 100 nM) | area under dose-response curve (HL-60 [2]; co-treatment: DMSO vehicle) | area under dose-response curve (HL-60 [2]; [4]) | area under dose-response curve (HL-60 [2]; [5]) | area under dose-response curve [3] |
| --- | --- | --- | --- | --- | --- | --- | --- | --- | --- | --- | --- | --- | --- | --- | --- | --- | --- | --- | --- | --- |
| COc1c(C)c2c(c(O)c1C/C=C(\C)CCC(=O)O)C(=O)OC2 [Mycophenolic acid] | 108% | 117% | 80% | 51.3% | 18.4% | 101% | 104% | 94.5% | 70.6% | 18.5% | 94.6% | 94.5% | 104% | 51.7% | 10.9% | 0.0599 | < 0.0301 | 0.0302 | 0.0317 | < 0.0301 |
| C1CCC(C(CC2CCCCN2)C2CCCCC2)CC1.O=C(O)/C=C\C(=O)O (stereo not given) [Perhexiline] | 91.2% | 90.1% | 110% | 93% | -0.124% | 91.9% | 85.2% | 100% | 95.6% | 0.46% | 96.3% | 85.1% | 94.9% | 99% | 8.47% | 0.133 | 0.125 | 0.16 | 0.198 | – |
| OCCN1CCN(CCCN2c3ccccc3Sc3ccc(Cl)cc32)CC1 [Perphenazine] | 97.8% | 133% | 92% | 103% | 18.8% | 105% | 93% | 97.4% | 99.7% | 43.4% | 93.8% | 93.5% | 103% | 98% | 30% | 0.0332 | < 0.0301 | 0.0329 | < 0.0301 | – |
| C=CCc1ccc2c(c1O)C(=O)c1ccccc1C2=O [R162] | 98.1% | 104% | 95.6% | 92.5% | 101% | 85.5% | 98% | 107% | 109% | 114% | 98.5% | 89.9% | 95.1% | 125% | 92.1% | < 0.0301 | < 0.0301 | < 0.0301 | < 0.0301 | – |
| O=C(c1ccc(OCCN2CCCCC2)cc1)c1c(-c2ccc(O)cc2)sc2cc(O)ccc12 [Raloxifene] | 99.3% | 90.6% | 99.8% | 110% | 62.1% | 102% | 90.6% | 92.1% | 96.5% | 75.1% | 97.1% | 95.8% | 95.3% | 93% | 70.6% | < 0.0301 | < 0.0301 | < 0.0301 | < 0.0301 | – |
| NC(=O)c1ncn([C@@H]2O[C@H](CO)[C@@H](O)[C@H]2O)n1 [Ribavirin] | 92.6% | 101% | 130% | 110% | 149% | 98.9% | 110% | 96.8% | 95.2% | 98.1% | 81.4% | 92.7% | 91.3% | 104% | 94.6% | < 0.0301 | < 0.0301 | < 0.0301 | < 0.0301 | – |
| Nc1ncnc2c1ncn2[C@@H]1O[C@H](CSCC[C@H](N)C(=O)O)[C@@H](O)[C@H]1O [S-Adenosyl Homocysteine] | 103% | 101% | 115% | 111% | 74.9% | 110% | 106% | 98.1% | 100% | 102% | 90.8% | 96.9% | 99.2% | 104% | 105% | < 0.0301 | < 0.0301 | < 0.0301 | < 0.0301 | – |
| CCCc1nn(C)c2c(O)nc(-c3cc(S(=O)(=O)N4CCN(C)CC4)ccc3OCC)nc12 [Sildenafil] | 99.7% | 88.7% | 100% | 82.9% | 111% | 95.9% | 97% | 95.7% | 105% | 108% | 87.5% | 104% | 91.3% | 107% | 92.1% | < 0.0301 | < 0.0301 | < 0.0301 | < 0.0301 | – |
| Cc1coc2c1C(=O)C(=O)c1c-2ccc2c(C)cccc12 [Tanshinone I] | 99% | 105% | 117% | 105% | 79.7% | 113% | 99.9% | 98% | 99.3% | 77.6% | 105% | 104% | 101% | 106% | 89.2% | < 0.0301 | < 0.0301 | < 0.0301 | < 0.0301 | – |
| CCOC(=O)N1c2ccc(C(F)(F)F)cc2[C@@H](N(Cc2cc(C(F)(F)F)cc(C(F)(F)F)c2)C(=O)OC)C[C@H]1CC [Torcetrapib] | 92.7% | 109% | – | 107% | 91% | 84.9% | 52.6% | 107% | 81.1% | 45.1% | 101% | 112% | 113% | 102% | 83.8% | < 0.0301 | < 0.0301 | < 0.0301 | < 0.0301 | 0.0394 |
| Oc1cc(Cl)ccc1Oc1ccc(Cl)cc1Cl [Triclosan] | 90.3% | 76.6% | 85.1% | 106% | 102% | 111% | 89.3% | 98.3% | 109% | 143% | 98.8% | 87% | 99.2% | 98% | 57.9% | < 0.0301 | < 0.0301 | < 0.0301 | < 0.0301 | – |
